The values below come from patent publication EP1268431B1 (Wyeth, priority 2000, dated 2001).

One test concerns the target T1, Raf-1 (c-Raf) (Homo sapiens, UniProt P04049).
T1 construct: Sf9 insect cell lysate containing full length 6his-tagged recombinant human c-Raf; 6his; host or cells: Sf9 insect cells (c-Raf, used as lysate); E. coli (GST-MEK1, GST-MAPK)
The test is described as follows: Raf1 Kinase Cascade Assay. In kind it is biochemical. As for the experimental part: (Specific Activity: -200U/ml). Human Non-active Mek-1-GST and human GST-MAP kinase (recombinant proteins produced in E. coli).
• Assay Dilution Buffer (ADB); 20mM MOPS, pH 7.2, 25mM β-glycerol phosphate, 5mM EGTA, 1mM sodium orthovanadate, 1mM dithiothreitol. • Magnesium/ATP Cocktail: 500µM cold ATP and 75 mM magnesium chloride in ADB. • Active Kinase: Human Active c-Raf: Use at 0.4U per assay point. • Non-active GST-MEK1: Use at 0.1 µg per assay point. • Non-active GST-p42 MAP Kinase: Use at 1.0 µg per assay point.
• TBST - Tris (50 mM, pH 7.5), NaCl (150 mM), Tween-20 (0.05 %) • Superblock (Pierce) • Anti-GST Ab (Pharmacia) • Anti-Phospho MAPK (Sigma) • Anti-Mouse Ab / Europium conjugate (Wallac)
IC50 determinations - done on compounds from single point assays with >80% inhibition. Typically Raf-1 assay is run at compound concentrations from 10 µM to 30 nM in half log dilutions. (% inhibition is determined for each compound concentration).

In test [1] the test system is human adenocarcinoma cell line CaCo-2. In words: Cell Based Screen for Inhibitors of Raf Kinase, CaCo-2 cells. The note with it: CaCo-2, four days, SRB. How it is done: (§1) • Cell Lines: Human adenocarcinoma cell line LoVo which is known to be growth inhibited by low nM concentrations of a reference standard inhibitor of Ras and human adenocarcinoma cell line CaCo-2, which is known to be growth resistant to the same reference compound. • Cell Media: RPMI 1640 with 10% Fetal Bovine Serum supplemented with L-glutamine and Pennicilin/Streptomycin. • Compounds: Supplied usually as a 10 mM stock in 100% DMSO. • Normal Saline: 150 mM NaCl • Trichloroacetic Acid (TCA): 50% (w/v) in water • Sulforhodamine B (SRB): 0.4% (w/v) in 1% Acetic Acid • Tris Base: 10 mM in water
(§2) Cells are plated at 2000 cells per well for cell line LoVo and 1500 cells for cell line CaCo-2 in 96 well plates. Cells are plated in media (200 µl) and allowed to adhere overnight at 37° C. At 24 hours post plating, compounds are added directly at a volume of 0.5 µl. For the qualitative screen (compounds screened at 25 µM) compound is added directly to cells. For the quantitative screen, compound is first diluted in DMSO to generate concentrations of compound or reference standard of: 1, 5, 10 and 25 µM. It is advisable to make the dilutions in an identical 96 well plate so that compounds may be added using a multichannel micropipettor set at 0.5 µl. The cells are then incubated for four days after which the media is removed using a 12 well manifold by first tipping the plate forward at a 45 degree angle and then inserting the manifold in an upright orientation to prevent the tips of the manifold from disturbing cells at the bottom of the plate. 200 µl of normal saline is then added to each well using an 8 well multichannel pipettor, followed by the careful addition of 50 µl of 50% TCA. The plates are then incubated for 2 hours at 4 ° C, after which the supernatant is removed using the same technique as above and the plated washed twice with 200 µl water. The plates are then air dried and 50 µl of SRB stock solution is carefully added so that the entire bottom of each well is covered. This again may be used using an 8 well multichannel pipettor. The SRB is incubated with fixed cells for 15 minutes at room temperature after which the SRB is removed with the manifold as described above and the plates washed twice with 350 µl of 1% acetic acid per well each time.The plates are then air dried after which the bound SRB is released from protein by the addition of 200 µl of Tris base. Resolubilizing the SRB is aided by placing the plates on a rotator for 15-30 minutes. The absorbance of each well is determined at 550 or 562 nm using a microtiter plate reader.
(§3) Each compound or dilution thereof is performed in triplicate. Outliers are identified by visual inspection of the data. Each plate should have a "0" control (vehicle only).
(§4) Quantitative Assay: A standard curve is constructed by plotting the concentration of compound against the average absorbance calculated at that concentration. A curve is plotted and the concentration at which the curve passes through the 50% the absorbance mark seen in the "0" control well is the IC50 calculated for that compound. […]

In test [2] the test system is Human adenocarcinoma cell line LoVo. In words: Cell Based Screen for Inhibitors of Raf Kinase, LoVo cells. As to conditions: four days, SRB. How it is done:
as §1, §2, §3, §4

Where “and” joins values, the source holds several entries; their conditions need not be identical. Equal entries are not always repeated.

For orientation: IC50 means the point on the concentration scale where inhibition reaches its midpoint.

“4-({3-chloro-4-[(1-methyl-1H-imidazol-2-yl)sulfanyl]phenyl}amino) -7-[5-(1-pyridinyl]-3-quinolinecarbonitrile [Example 180]”: the IC50 against Raf-1 (c-Raf) was 3.7 nM; in test [1], 930 nM; in test [2] it was 5.6 nM.

With “4-({3-chloro-4-[(1-methyl-1H-imidazol-2-yl)sulfanyl]phenyl}amino)-7-[6-(1-piperidinyl)-3-pyridinyl]-3-quinolinecarbonitrile [Example 211]”, the IC50 against Raf-1 (c-Raf) was 6 nM; in test [1], over 1000 nM; in test [2], 5.3 nM.

As for “4-{3-chloro-4-[(1-methyl-1H-imidazol-2-yl)sulfanyl]anilino}-7-[4-(1-piperidinylmethyl)phenyl]-3-quinolinecarbonitrile [Example 136]”, the IC50 was 2.5 nM and 1.8 nM at Raf-1 (c-Raf); over 1000 nM in test [1]; 11 nM in test [2].

Regarding “4-{3-chloro-4-[(1-methyl-1H-imidazol-2-yl)sulfanyl]anilino}-7-{5-[(4-ethyl-1-piperazinyl)methyl]-2-furyl}-3-quinolinecarbonitrile [Example 156]”, the IC50 was 9 nM and 12 nM against Raf-1 (c-Raf); 1000 nM in test [1]; 5.6 nM in test [2].

In the case of `Cn1ccnc1Sc1ccc(Nc2c(C#N)cnc3cc(-c4csc(CN5CCOCC5)c4)ccc23)cc1Cl` [Example 33, 4-{3-Chloro-4-[(1-methyl-1H-imidazol-2-yl)sulfanyl]anilino}-7-[5-(4-morpholinylmethyl)-3-thienyl]-3-quinolinecarbonitrite], the IC50 (on Raf-1 (c-Raf); in test [2]) was 6 nM each time.

`Cn1ccnc1Sc1ccc(Nc2c(C#N)cnc3cc(-c4ccc(CN5CCCCC5)o4)ccc23)cc1Cl` [Example 155, 4-{3-chloro-4-[(1-methyl-1H-imidazol-2-yl)sulfanyl]anilino}-7-[5-(1-piperidinylmethyl)-2-furyl]-3-quinolinecarbonitrile]: at Raf-1 (c-Raf), the midpoint of inhibition, the IC50, lay at 20 nM.

For the compound `CCN1CCN(Cc2ccnc(-c3ccc4c(Nc5ccc(Sc6nccn6C)c(Cl)c5)c(C#N)cnc4c3)c2)CC1` [Example 205, 4-({3-chloro-4-[(1-methyl-1H-imidazol-2-yl)sulfanyl]phenyl}amino)-7-{4-[(4-ethyl-1-piperazinyl)methyl]-2-pyridinyl}-3-quinolinecarbonitrile], the IC50 in test [1] (Homo sapiens, Caco-2, 96 h) came to 940 nM; in test [2] (Homo sapiens, 96 h), 275 nM.

As for `CN1CCN(Cc2ccnc(-c3ccc4c(Nc5ccc(Sc6nccn6C)c(Cl)c5)c(C#N)cnc4c3)c2)CC1` [Example 206, 4-({3-chloro-4-[(1-methyl-1H-imidazol-2-yl)sulfanyl]phenyl}amino)-7-{4-[(4-methyl-1-piperazinyl)methyl]-2-pyridinyl}-3-quinolinecarbonitrile], the IC50 is over 1000 nM in test [1] (Homo sapiens, Caco-2, 96 h) and 280 nM in test [2] (Homo sapiens, 96 h).

Turning to `Cn1ccnc1Sc1ccc(Nc2c(C#N)cnc3cc(-c4ccc(N5CCC(N6CCCC6)CC5)nc4)ccc23)cc1Cl` [Example 210, 4-({3-chloro-4-[(1-methyl-1H-imidazol-2-yl)sulfanyl]phenyl}amino)-7-{6-[4-(1-pyrrolidinyl)-1-piperidinyl]-3-pyridinyl}-3-quinolinecarbonitrile], the IC50 in test [1] (Homo sapiens, Caco-2, 96 h) was 590 nM; in test [2] (Homo sapiens, 96 h), 3.2 nM.

As for `COCCN(C)c1ccc(-c2ccc3c(Nc4ccc(Sc5nccn5C)c(Cl)c4)c(C#N)cnc3c2)cn1` [Example 212, 4-({3-chloro-4-[(1-methyl-1H-imidazol-2-yl)sulfanyl]phenyl}amino)-7-{6-[(2-methoxyethyl)(methyl)amino]-3-pyridinyl}-3-quinolinecarbonitrile], the IC50 came out at 780 nM in test [1] (Homo sapiens, Caco-2, 96 h) and 4 nM in test [2] (Homo sapiens, 96 h).

Take `CCOC(=O)C1CCN(c2ccc(-c3ccc4c(Nc5ccc(Sc6nccn6C)c(Cl)c5)c(C#N)cnc4c3)cn2)CC1` [Example 213, ethyl 1-{5-[4-({3-chloro-4-[(1-methyl-1H-imidazol-2-yl)sulfanyl]phenyl}amino)-3-cyano-7-quinolinyl]-2-pyridinyl}-4-piperidinecarboxylate]: the IC50 in test [1] (Homo sapiens, Caco-2, 96 h) is over 1000 nM; in test [2] (Homo sapiens, 96 h) it was 45.2 nM.

Turning to `Cn1ccnc1Sc1ccc(Nc2c(C#N)cnc3cc(-c4ccc(N5CCC(O)CC5)nc4)ccc23)cc1Cl` [Example 214, 4-({3-chloro-4-[(1-methyl-1H-imidazol-2-yl)sulfanyl]phenyl}amino)-7-[6-(4-hydroxy-1-piperidinyl)-3-pyridinyl]-3-quinolinecarbonitrile], the half-inhibitory concentration (IC50) in test [1] (Homo sapiens, Caco-2, 96 h) was over 1000 nM; in test [2] (Homo sapiens, 96 h), 5.7 nM.

With `Cn1ccnc1Sc1ccc(Nc2c(C#N)cnc3cc(-c4ccc(N5CCN(CCO)CC5)nc4)ccc23)cc1Cl` [Example 215, 4-({3-chloro-4-[(1-methyl-1H-imidazol-2-yl)sulfanyl]phenyl}amino)-7-{6-[4-(2-hydroxyethyl)-1-piperazinyl]-3-pyridinyl}-3-quinolinecarbonitrile], the IC50 was over 1000 nM in test [1] (Homo sapiens, Caco-2, 96 h) and 3.5 nM in test [2] (Homo sapiens, 96 h).

For the compound `CN(CCO)c1ccc(-c2ccc3c(Nc4ccc(Sc5nccn5C)c(Cl)c4)c(C#N)cnc3c2)cn1` [Example 216, 4-({3-chloro-4-[(1-methyl-1H-imidazol-2-yl)sulfanyl]phenyl}amino)-7-{6-[(2-hydroxyethyl)(methyl)amino]-3-pyridinyl}-3-quinolinecarbonitrile], the IC50 in test [1] (Homo sapiens, Caco-2, 96 h) was over 1000 nM; in test [2] (Homo sapiens, 96 h), 7 nM.

For `Cn1ccnc1Sc1ccc(Nc2c(C#N)cnc3cc(-c4ccc(CN5CCN(CCO)CC5)cn4)ccc23)cc1Cl` [Example 217, 4-({3-chloro-4-[(1-methyl-1H-imidazol-2-yl)sulfanyl]phenyl}amino)-7-(5-{[4-(2-hydroxyethyl)-1-piperazinyl]methyl}-2-pyridinyl)-3-quinolinecarbonitrile], the IC50 is over 1000 nM in test [1] (Homo sapiens, Caco-2, 96 h) and 36 nM in test [2] (Homo sapiens, 96 h).

Regarding `Cn1ccnc1Sc1ccc(Nc2c(C#N)cnc3cc(-c4ccc(CN5CCSCC5)cn4)ccc23)cc1Cl` [Example 219], the IC50 was over 1000 nM in test [1] (Homo sapiens, Caco-2, 96 h) and 15 nM in test [2] (Homo sapiens, 96 h).

In the case of `CCN1CCN(Cc2ccc(-c3ccc4c(Nc5ccc(Sc6nccn6C)c(Cl)c5)c(C#N)cnc4c3)cn2)CC1` [Example 220, 4-({3-chloro-4-[(1-methyl-1H-imidazol-2-yl)sulfanyl]phenyl}amino)-7-{6-[(4-ethyl-1-piperazinyl)methyl]-3-pyridinyl}-3-quinolinecarbonitrile], the IC50 is over 1000 nM in test [1] (Homo sapiens, Caco-2, 96 h) and 7.7 nM in test [2] (Homo sapiens, 96 h).

For the compound `CN1CCN(Cc2ccc(-c3ccc4c(Nc5ccc(Sc6nccn6C)c(Cl)c5)c(C#N)cnc4c3)cn2)CC1` [Example 221, 4-({3-chloro-4-[(1-methyl-1H-imidazol-2-yl)sulfanyl]phenyl}amino)-7-{6-[(4-methyl-1-piperazinyl)methyl]-3-pyridinyl}-3-quinolinecarbonitrile], the IC50 was over 1000 nM in test [1] (Homo sapiens, Caco-2, 96 h) and 74 nM in test [2] (Homo sapiens, 96 h).

Turning to `N#Cc1cnc2cc(-c3csc(CN4CCCCC4)c3)ccc2c1Nc1ccc(Sc2ccccc2)c(Cl)c1` [Example 462, 4-{[3-chloro-4-(phenylsulfanyl)phenyl]amino}-7-[5-(1-piperidinylmethyl)-3-thienyl]-3-quinolinecarbonitrile], the IC50 at Raf-1 (c-Raf) stood at 50 nM. That is a double-digit nanomolar value.
